# Values quoted from earlier work as cited in patent US20060211660A1, “Combination therapy for topical application in the treatment of dry eye syndrome” (priority 2005, published 2006).
# Where two headings read alike, the source gives them in different places.
# Assays:
# [1] = for androgenic (virilizing) activity relative to standards: relative to standards (typically testosterone)
# [2] = for anabolic activity relative to standards: relative to standards (typically testosterone)
Compound,androgenic (virilizing) activity relative to standards [1],anabolic activity relative to standards [2],other results
C[C@]12CC[C@@H]3c4ccc(O)cc4CC[C@H]3[C@@H]1CC[C@@H]2O [17-β-estradiol],–,–,"improvement in corneal lens transmittance and autofluorescence (0.00025% drops every 6 hours, women already taking 2 mg estriol valerate daily by mouth): varying or marginal improvement"
CCC(=O)O[C@H]1CC[C@H]2[C@@H]3CCC4=CC(=O)CC[C@@H]4[C@H]3CC[C@]12C [19-nortestosterone propionate],decreased,unchanged,–
C[C@]12CCC(=O)C[C@@H]1CC[C@@H]1[C@@H]2CC[C@]2(C)[C@@H](O)CC[C@@H]12 [dihydrotestosterone],unchanged,enhanced,–
C[C@]12CC[C@@H]3c4ccc(O)cc4CC[C@H]3[C@@H]1C[C@@H](O)[C@@H]2O [estriol],–,–,"improvement in corneal lens transmittance and autofluorescence (post-menopausal patients, low systemic dose 0.25 mg per day): varying or marginal improvement"
C[C@]1(O)CC[C@H]2[C@@H]3CCC4=CC(=O)CC[C@]4(C)[C@@]3(F)[C@@H](O)C[C@@]21C [fluoxymesterone],augmented,–,–
"C[C@]12COC(=O)C[C@@H]1CC[C@@H]1[C@@H]2CC[C@@]2(C)[C@H]1CC[C@]2(C)O [oxandrolone, 17 alpha-methyl-17β-hydroxy-2-oxa-5 alpha-androstan-3-one]",decreased,increased,"androgenic activity, percent of that of methyltestosterone ([1]; relative to methyltestosterone): 24%; anabolic activity, percent of that of methyltestosterone ([2]; relative to methyltestosterone): 322%"
C[C@]12C/C(=C/O)C(=O)C[C@@H]1CC[C@@H]1[C@@H]2CC[C@@]2(C)[C@H]1CC[C@]2(C)O [oxymetholone],unchanged,enhanced,–
C[C@]12Cc3c[nH]nc3C[C@@H]1CC[C@@H]1[C@@H]2CC[C@@]2(C)[C@H]1CC[C@]2(C)O [stanozolol],decreased,increased,–
